The subject of assay [1] is Streptococcus pyrogenes (ATCC8668). Kind of assay: MIC testing, additional organisms: Streptococcus pyrogenes. Format: cell-based. Particulars: broth supplemented with 2% laked horse blood. The text has this:
(§1) The broth microdilution format of the National Committee for Clinical Laboratory Standards (NCCLS) approved standard for susceptibility tests as outlined in M7-A4 “methods for dillution Antimicrobial susceptibility tests for bacteria that grow aerobically; approved standard—fifth edition”, January 2000 was utilized for minimum inhibitory concentration testing in Mueller-Hinton broth. The broth for Streptococcus pyogenes testing was supplemented with 2% laked horse blood. A positive result in initial testing was determined by complete inhibition of macroscopic bacterial growth at a concentration of 128 micrograms per mL after incubation for 16 to 24 hours at 37 degrees C. In the case of Micrococcus luteus, incubation was at 30 degrees C.
(§2) Bacterial Types Are: • SA24 S. aureus after 24 hours exposure • SA48 S. aureus after 48 hours exposure • EC24 E. coli after 24 hours exposure
(§3) The following compounds were tested against additional organisims with the following results. • 1. Micrococcus luteus (ATCC272) • 2. Staphylococcus aureus (ATCC29213) • 3. Staphylococcus aureus (ATCC43300) MRSA • 4. Enterococcus faecalis (ATCC29212) • 5. Enterococcus faecalis (ATCCS 1299) Vancomycin resistant • 6. Streptococcus pyrogenes (ATCC8668)

The subject of assay [2] is Micrococcus luteus (ATCC272). Kind of assay: MIC testing, additional organisms: Micrococcus luteus. Format: cell-based. The following applies: incubation at 30 degrees C.
Description: as §1, §2, §3

A further assay concerns S. aureus. Kind of assay: MIC testing, broth microdilution (NCCLS), S. aureus. Format: cell-based, Staphylococcus aureus. Particulars: for SA24 (MIC): S. aureus after 24 hours exposure; for SA48 (MIC): S. aureus after 48 hours exposure. The text has this: (§4) The broth microdilution format of the National Committee for Clinical Laboratory Standards (NCCLS) approved standard for susceptibility tests as outlined in M7-A4 “methods for dillution Antimicrobial susceptibility tests for bacteria that grow aerobically; approved standard—fifth edition”, January 2000 was utilized for minimum inhibitory concentration testing in Mueller-Hinton broth. The broth for Streptococcus pyogenes testing was supplemented with 2% laked horse blood. A positive result in initial testing was determined by complete inhibition of macroscopic bacterial growth at a concentration of 128 micrograms per mL after incubation for 16 to 24 hours at 37 degrees C. In the case of Micrococcus luteus, incubation was at 30 degrees C. […] Bacterial Types Are: • SA24 S. aureus after 24 hours exposure • SA48 S. aureus after 48 hours exposure • EC24 E. coli after 24 hours exposure

Assay [3] concerns Staphylococcus aureus (ATCC29213). Kind of assay: MIC testing, additional organisms: Staphylococcus aureus ATCC29213. It is filed as cell-based.
Description: as §1, §2, §3

Assay [4] has as its system Staphylococcus aureus (ATCC43300) MRSA. Kind of assay: MIC testing, additional organisms: Staphylococcus aureus MRSA. It is filed as cell-based.
Description: as §1, §2, §3

The subject of assay [5] is Enterococcus faecalis (ATCC29212). Kind of assay: MIC testing, additional organisms: Enterococcus faecalis ATCC29212. It is filed as cell-based.
Description: as §1, §2, §3

Assay [6] concerns Enterococcus faecalis (ATCCS 1299) Vancomycin resistant. Kind of assay: MIC testing, additional organisms: Enterococcus faecalis vancomycin resistant. Format: cell-based.
Description: as §1, §2, §3

A further assay has as its system E. coli. Kind of assay: MIC testing, broth microdilution (NCCLS), E. coli. Format: cell-based. Particulars: E. coli after 24 hours exposure.
Description: as §4

Consider `CCCCCCCCCCN[C@H]1C(CO)OCC(NC(=O)Nc2cccc(C(F)(F)F)c2)[C@H]1O[C@@H]1OC(CO)[C@@H](O)[C@H](O)C1NC(=O)Nc1cccc(C(F)(F)F)c1` (stereo partly drawn) [compound 56], for which, in assay [1], the “MIC, organism 6” value is recorded as “+ (+ indicates an MIC value of less than 128 micrograms per mL)”. Moreover, in assay [2], the “MIC, organism 1” value is listed as “+ (+ indicates an MIC value of less than 128 micrograms per mL)”. Moreover, in the assay on S. aureus, the “SA24 (MIC)” value is “+ (+ indicates an MIC value of less than 128 micrograms per mL)” and the “SA48 (MIC)” value was “+ (+ indicates an MIC value of less than 128 micrograms per mL)”. The “MIC, organism 2” value in assay [3] is given as “+ (+ indicates an MIC value of less than 128 micrograms per mL)”. Moreover, the “MIC, organism 3” value in assay [4] was “+ (+ indicates an MIC value of less than 128 micrograms per mL)”. For the same molecule, in assay [5], the “MIC, organism 4” value is reported as “+ (+ indicates an MIC value of less than 128 micrograms per mL)”. Also, the “MIC, organism 5” value in assay [6] is “+ (+ indicates an MIC value of less than 128 micrograms per mL)”.
For `CCCCCCCC(=O)Nc1ccc(C(=O)NC2C(CO)OCC(NC(=O)Nc3cccc(C(F)(F)F)c3)C2OC2OC(CO)C(O)C(O)C2NC(=O)Nc2cccc(C(F)(F)F)c2)cc1` (stereo not drawn) [compound 65], the “MIC, organism 6” value in assay [1] is given as “+ (+ indicates an MIC value of less than 128 micrograms per mL)”. In addition, in assay [2], the “MIC, organism 1” value was “+ (+ indicates an MIC value of less than 128 micrograms per mL)”. Also, in the assay with S. aureus, the “SA24 (MIC)” value is recorded as “+ (+ indicates an MIC value of less than 128 micrograms per mL)” and the “SA48 (MIC)” value is listed as “+ (+ indicates an MIC value of less than 128 micrograms per mL)”. In addition, the “MIC, organism 2” value in assay [3] is recorded as “− (− indicates an MIC of greater then 128 micrograms per mL)”. The “MIC, organism 3” value in assay [4] is “− (− indicates an MIC of greater then 128 micrograms per mL)”. Further, the “MIC, organism 4” value in assay [5] is given as “+ (+ indicates an MIC value of less than 128 micrograms per mL)”. Moreover, the “MIC, organism 5” value in assay [6] was “− (− indicates an MIC of greater then 128 micrograms per mL)”.
Consider `CCCCCCCCCCS(=O)(=O)NC1C(CO)OCC(NC(=O)Nc2cccc(C(F)(F)F)c2)C1OC1OC(CO)C(O)C(O)C1NC(=O)Nc1cccc(C(F)(F)F)c1` (stereo not drawn) [compound 69], for which the “MIC, organism 6” value in assay [1] is “+ (+ indicates an MIC value of less than 128 micrograms per mL)”. Moreover, the “MIC, organism 1” value in assay [2] is reported as “+ (+ indicates an MIC value of less than 128 micrograms per mL)”. Further, the “SA24 (MIC)” value in the assay with S. aureus is on record as “+ (+ indicates an MIC value of less than 128 micrograms per mL)”. Moreover, in assay [3], the “MIC, organism 2” value is recorded as “+ (+ indicates an MIC value of less than 128 micrograms per mL)”. Besides, the “MIC, organism 3” value in assay [4] is on record as “+ (+ indicates an MIC value of less than 128 micrograms per mL)”. In addition, the “MIC, organism 4” value in assay [5] is “+ (+ indicates an MIC value of less than 128 micrograms per mL)”. In addition, the “MIC, organism 5” value in assay [6] was “− (− indicates an MIC of greater then 128 micrograms per mL)”.
On to `CCCCCC(=O)NC1C(CO)OCC(NC(=O)Nc2cccc(C(F)(F)F)c2)C1OC1OC(CO)C(O)C(O)C1NC(=O)Nc1cccc(C(F)(F)F)c1` (stereo not drawn) [compound 70], for which the “MIC, organism 6” value in assay [1] is given as “+ (+ indicates an MIC value of less than 128 micrograms per mL)”. The “MIC, organism 1” value in assay [2] was “+ (+ indicates an MIC value of less than 128 micrograms per mL)”. Further, in the assay with S. aureus, the “SA24 (MIC)” value is on record as “− (− indicates an MIC of greater then 128 micrograms per mL)”. Besides, in assay [3], the “MIC, organism 2” value is given as “− (− indicates an MIC of greater then 128 micrograms per mL)”. The “MIC, organism 3” value in assay [4] is on record as “− (− indicates an MIC of greater then 128 micrograms per mL)”. For the same molecule, the “MIC, organism 4” value in assay [5] is listed as “+ (+ indicates an MIC value of less than 128 micrograms per mL)”. Also, the “MIC, organism 5” value in assay [6] is given as “− (− indicates an MIC of greater then 128 micrograms per mL)”.
Turning to `O=C(Nc1cccc(C(F)(F)F)c1)NC1COC(CO)C(NC(=O)c2ccc(Oc3ccccc3)cc2)C1OC1OC(CO)C(O)C(O)C1NC(=O)Nc1cccc(C(F)(F)F)c1` (stereo not drawn) [compound 73], in assay [1], the “MIC, organism 6” value is “+ (+ indicates an MIC value of less than 128 micrograms per mL)”. Also, the “MIC, organism 1” value in assay [2] was “+ (+ indicates an MIC value of less than 128 micrograms per mL)”. Further, the “SA24 (MIC)” value with S. aureus was “+ (+ indicates an MIC value of less than 128 micrograms per mL)”. Also, the “MIC, organism 2” value in assay [3] is recorded as “+ (+ indicates an MIC value of less than 128 micrograms per mL)”. Further, the “MIC, organism 3” value in assay [4] is listed as “+ (+ indicates an MIC value of less than 128 micrograms per mL)”. In addition, in assay [5], the “MIC, organism 4” value is “+ (+ indicates an MIC value of less than 128 micrograms per mL)”. In assay [6], the “MIC, organism 5” value is listed as “+ (+ indicates an MIC value of less than 128 micrograms per mL)”.
For `O=C(Nc1cccc(C(F)(F)F)c1)NC1COC(CO)C(NC(=O)c2ccc(-c3ccccc3)cc2)C1OC1OC(CO)C(O)C(O)C1NC(=O)Nc1cccc(C(F)(F)F)c1` (stereo not drawn) [compound 74], in assay [1], the “MIC, organism 6” value is listed as “+ (+ indicates an MIC value of less than 128 micrograms per mL)”. Moreover, the “MIC, organism 1” value in assay [2] is recorded as “+ (+ indicates an MIC value of less than 128 micrograms per mL)”. Also, the “SA24 (MIC)” value with S. aureus is “+ (+ indicates an MIC value of less than 128 micrograms per mL)”. Besides, in assay [3], the “MIC, organism 2” value is “+ (+ indicates an MIC value of less than 128 micrograms per mL)”. Moreover, the “MIC, organism 3” value in assay [4] is on record as “+ (+ indicates an MIC value of less than 128 micrograms per mL)”. Moreover, in assay [5], the “MIC, organism 4” value is given as “+ (+ indicates an MIC value of less than 128 micrograms per mL)”. For the same molecule, the “MIC, organism 5” value in assay [6] is recorded as “+ (+ indicates an MIC value of less than 128 micrograms per mL)”.
In the case of `CCCCCCCCCCCCC(=O)NC1C(CO)OCC(NC(=O)Nc2cccc(C(F)(F)F)c2)C1OC1OC(CO)C(O)C(O)C1NC(=O)Nc1cccc(C(F)(F)F)c1` (stereo not drawn) [compound 76], the “MIC, organism 6” value in assay [1] is recorded as “+ (+ indicates an MIC value of less than 128 micrograms per mL)”. In addition, the “MIC, organism 1” value in assay [2] is reported as “+ (+ indicates an MIC value of less than 128 micrograms per mL)”. Moreover, the “SA24 (MIC)” value in the assay on S. aureus is “+ (+ indicates an MIC value of less than 128 micrograms per mL)”. For the same molecule, the “MIC, organism 2” value in assay [3] is on record as “+ (+ indicates an MIC value of less than 128 micrograms per mL)”. In assay [4], the “MIC, organism 3” value was “+ (+ indicates an MIC value of less than 128 micrograms per mL)”. The “MIC, organism 4” value in assay [5] was “+ (+ indicates an MIC value of less than 128 micrograms per mL)”. In addition, the “MIC, organism 5” value in assay [6] is recorded as “+ (+ indicates an MIC value of less than 128 micrograms per mL)”.
Regarding `CCCCCCCCCCC(=O)NC1C(CO)OCC(NC(=O)Nc2cccc(C(F)(F)F)c2)C1OC1OC(CO)C(O)C(O)C1NC(=O)Nc1cccc(C(F)(F)F)c1` (stereo not drawn) [compound 77], the “MIC, organism 6” value in assay [1] is given as “+ (+ indicates an MIC value of less than 128 micrograms per mL)”. Also, the “MIC, organism 1” value in assay [2] is “+ (+ indicates an MIC value of less than 128 micrograms per mL)”. Further, in the assay on S. aureus, the “SA24 (MIC)” value is reported as “+ (+ indicates an MIC value of less than 128 micrograms per mL)” and the “SA48 (MIC)” value is “+ (+ indicates an MIC value of less than 128 micrograms per mL)”. The “MIC, organism 2” value in assay [3] is recorded as “+ (+ indicates an MIC value of less than 128 micrograms per mL)”. For the same molecule, in assay [4], the “MIC, organism 3” value was “+ (+ indicates an MIC value of less than 128 micrograms per mL)”. Besides, in assay [5], the “MIC, organism 4” value is reported as “+ (+ indicates an MIC value of less than 128 micrograms per mL)”. Besides, in the assay with E. coli, the “EC24 (MIC)” value is on record as “− (− indicates an MIC of greater then 128 micrograms per mL)”. For the same molecule, the “MIC, organism 5” value in assay [6] is “+ (+ indicates an MIC value of less than 128 micrograms per mL)”.

For the origin of these results see patent US7700577B2, “Carbohydrate based anti-bacterials” (Alchemia Limited, priority 2002, dated 2010).
